One data set addresses T1, OATP1B1 (Homo sapiens, UniProt Q9Y6L6).
T1 sequence (Q9Y6L6 1-691): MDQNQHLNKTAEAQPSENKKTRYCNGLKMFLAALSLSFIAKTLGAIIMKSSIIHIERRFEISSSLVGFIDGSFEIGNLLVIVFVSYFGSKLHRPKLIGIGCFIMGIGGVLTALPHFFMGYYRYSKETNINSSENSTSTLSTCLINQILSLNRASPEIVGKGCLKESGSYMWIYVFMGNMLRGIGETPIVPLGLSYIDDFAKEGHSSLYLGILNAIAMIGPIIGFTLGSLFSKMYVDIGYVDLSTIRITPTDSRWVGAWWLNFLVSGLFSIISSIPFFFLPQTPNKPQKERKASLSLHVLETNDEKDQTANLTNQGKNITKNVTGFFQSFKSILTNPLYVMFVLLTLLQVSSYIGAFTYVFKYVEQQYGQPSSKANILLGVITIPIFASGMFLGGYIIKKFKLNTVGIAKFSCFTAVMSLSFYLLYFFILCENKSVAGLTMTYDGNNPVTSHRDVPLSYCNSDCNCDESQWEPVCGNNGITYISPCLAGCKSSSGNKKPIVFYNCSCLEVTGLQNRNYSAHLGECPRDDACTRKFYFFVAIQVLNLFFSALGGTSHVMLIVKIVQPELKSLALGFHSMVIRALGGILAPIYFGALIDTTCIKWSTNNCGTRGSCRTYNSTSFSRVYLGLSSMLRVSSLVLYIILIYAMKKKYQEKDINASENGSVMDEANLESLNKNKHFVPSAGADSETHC
The conditions noted are these: in vitro; cited from earlier work.

The next data set addresses T2, OATP1B3 (Homo sapiens, UniProt Q9NPD5).
T2 sequence (Q9NPD5 1-702): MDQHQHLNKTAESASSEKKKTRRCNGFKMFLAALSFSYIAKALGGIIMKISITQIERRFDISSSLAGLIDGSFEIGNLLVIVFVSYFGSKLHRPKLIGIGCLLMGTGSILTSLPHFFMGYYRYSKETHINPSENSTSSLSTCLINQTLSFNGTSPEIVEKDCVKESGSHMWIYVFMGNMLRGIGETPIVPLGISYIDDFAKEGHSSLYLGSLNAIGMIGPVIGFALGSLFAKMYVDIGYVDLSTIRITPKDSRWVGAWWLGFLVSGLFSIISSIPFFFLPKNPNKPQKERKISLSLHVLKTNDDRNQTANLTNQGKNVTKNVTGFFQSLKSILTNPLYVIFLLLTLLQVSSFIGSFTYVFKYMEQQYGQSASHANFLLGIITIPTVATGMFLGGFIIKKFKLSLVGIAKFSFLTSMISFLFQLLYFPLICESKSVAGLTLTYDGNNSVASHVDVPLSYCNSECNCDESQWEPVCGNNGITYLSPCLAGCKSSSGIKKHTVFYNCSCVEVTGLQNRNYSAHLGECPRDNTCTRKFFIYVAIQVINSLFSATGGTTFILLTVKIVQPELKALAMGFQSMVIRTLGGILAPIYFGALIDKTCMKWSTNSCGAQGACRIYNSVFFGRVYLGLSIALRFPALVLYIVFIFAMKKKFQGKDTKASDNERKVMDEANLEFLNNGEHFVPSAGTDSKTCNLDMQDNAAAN
The conditions noted are these: in vitro; cited from earlier work.

For data set [1], the target named is P-gp/MDR1 efflux transporter (Homo sapiens, UniProt P08183). The conditions noted are these: in vitro; cited from earlier work.
A further data set has as its target T3, BCRP (Homo sapiens, UniProt Q9UNQ0).
T3 sequence (Q9UNQ0 1-655): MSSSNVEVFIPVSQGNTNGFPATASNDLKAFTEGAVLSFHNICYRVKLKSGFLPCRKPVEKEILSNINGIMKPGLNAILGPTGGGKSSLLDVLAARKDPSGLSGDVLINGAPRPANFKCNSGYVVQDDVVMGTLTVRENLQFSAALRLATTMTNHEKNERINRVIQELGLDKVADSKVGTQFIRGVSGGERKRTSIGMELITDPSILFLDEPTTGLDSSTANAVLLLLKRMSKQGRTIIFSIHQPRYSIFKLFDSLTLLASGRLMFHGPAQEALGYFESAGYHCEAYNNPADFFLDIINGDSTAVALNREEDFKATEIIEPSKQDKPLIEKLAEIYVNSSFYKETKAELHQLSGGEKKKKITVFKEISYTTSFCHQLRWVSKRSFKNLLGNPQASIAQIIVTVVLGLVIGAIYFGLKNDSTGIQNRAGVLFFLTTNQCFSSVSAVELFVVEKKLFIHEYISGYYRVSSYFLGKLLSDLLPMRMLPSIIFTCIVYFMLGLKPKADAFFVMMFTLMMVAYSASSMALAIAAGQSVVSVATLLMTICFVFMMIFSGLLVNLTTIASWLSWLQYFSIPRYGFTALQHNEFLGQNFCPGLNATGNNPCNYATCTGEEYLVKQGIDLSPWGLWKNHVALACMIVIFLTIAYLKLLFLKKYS
The conditions noted are these: in vitro; cited from earlier work.

A short description of data set [2]: Phase 1 two-period crossover study of the effect of quinidine on the pharmacokinetics of opicapone (plasma PK). The conditions noted are these: for AUC(0-inf) / AUC(0-t) / Cmax / half-life: plasma, 50 mg. In kind it is in vivo, human. The text has this:
A Phase 1, Randomized, Open-Label, Two-Period Crossover Study to Assess the Effect of Quinidine on the Pharmacokinetics of Opicapone (OPC) in Healthy Subjects
This was a Phase 1, randomized, open-label, 2-period crossover drug interaction study of the effect of quinidine on the PK of OPC in healthy subjects. A total of 20 subjects (10 males and 10 females) were randomized to 1 of 2 treatment sequences (5 males and 5 females per sequence) as depicted in the table below. Randomization to treatment sequence were stratified by gender. Enrolled subjects received a single dose of each of the following treatments under fasted conditions: OPC 50 mg and quinidine 600 mg plus OPC 50 mg (OPC will be administered 1 hour after quinidine). There was be a 14-day washout between the doses in each treatment period.
Subjects fasted overnight for at least 10 hours before OPC dosing on Day 1 and continued to fast for an additional 4 hours after OPC dosing.
Blood samples for the assessment of plasma concentrations of OPC and its metabolites were collected within 30 minutes predose and approximately 0.5, 1, 1.5, 2, 3, 4, 6, 8, 10, 12, 24, 48, 72, 96, and 120 hours postdose. The PK parameters to be calculated included the following for OPC and its metabolites:
Blood samples for the assessment of plasma concentrations of OPC and its metabolites were collected within 30 minutes predose and approximately 0.5, 1, 1.5, 2, 3, 4, 6, 8, 10, 12, 24, 48, 72, 96, and 120 hours postdose.
The following plasma PK parameters were calculated only for OPC: • Apparent systemic clearance after oral administration (CL/F). • Apparent volume of distribution during the terminal phase after oral administration (Vz/F).
PK parameters for OPC and its metabolites were calculated using noncompartmental methods. […] Safety data will be summarized with descriptive statistics.
Pharmacokinetic parameters (AUC0-inf, AUC0-t, and Cmax) for Opicapone were natural log-transformed prior to analysis and evaluated separately using a linear mixed effects model with fixed effects terms for sequence, period, and treatment. […] CV %=SQRT[exp(s^2)−1]×100 and ‘s’ is the standard deviation of the log-transformed values.

Where two headings read alike, the source gives them in different places.

P-gp/MDR1 efflux transporter, sequence (P08183 whole entry): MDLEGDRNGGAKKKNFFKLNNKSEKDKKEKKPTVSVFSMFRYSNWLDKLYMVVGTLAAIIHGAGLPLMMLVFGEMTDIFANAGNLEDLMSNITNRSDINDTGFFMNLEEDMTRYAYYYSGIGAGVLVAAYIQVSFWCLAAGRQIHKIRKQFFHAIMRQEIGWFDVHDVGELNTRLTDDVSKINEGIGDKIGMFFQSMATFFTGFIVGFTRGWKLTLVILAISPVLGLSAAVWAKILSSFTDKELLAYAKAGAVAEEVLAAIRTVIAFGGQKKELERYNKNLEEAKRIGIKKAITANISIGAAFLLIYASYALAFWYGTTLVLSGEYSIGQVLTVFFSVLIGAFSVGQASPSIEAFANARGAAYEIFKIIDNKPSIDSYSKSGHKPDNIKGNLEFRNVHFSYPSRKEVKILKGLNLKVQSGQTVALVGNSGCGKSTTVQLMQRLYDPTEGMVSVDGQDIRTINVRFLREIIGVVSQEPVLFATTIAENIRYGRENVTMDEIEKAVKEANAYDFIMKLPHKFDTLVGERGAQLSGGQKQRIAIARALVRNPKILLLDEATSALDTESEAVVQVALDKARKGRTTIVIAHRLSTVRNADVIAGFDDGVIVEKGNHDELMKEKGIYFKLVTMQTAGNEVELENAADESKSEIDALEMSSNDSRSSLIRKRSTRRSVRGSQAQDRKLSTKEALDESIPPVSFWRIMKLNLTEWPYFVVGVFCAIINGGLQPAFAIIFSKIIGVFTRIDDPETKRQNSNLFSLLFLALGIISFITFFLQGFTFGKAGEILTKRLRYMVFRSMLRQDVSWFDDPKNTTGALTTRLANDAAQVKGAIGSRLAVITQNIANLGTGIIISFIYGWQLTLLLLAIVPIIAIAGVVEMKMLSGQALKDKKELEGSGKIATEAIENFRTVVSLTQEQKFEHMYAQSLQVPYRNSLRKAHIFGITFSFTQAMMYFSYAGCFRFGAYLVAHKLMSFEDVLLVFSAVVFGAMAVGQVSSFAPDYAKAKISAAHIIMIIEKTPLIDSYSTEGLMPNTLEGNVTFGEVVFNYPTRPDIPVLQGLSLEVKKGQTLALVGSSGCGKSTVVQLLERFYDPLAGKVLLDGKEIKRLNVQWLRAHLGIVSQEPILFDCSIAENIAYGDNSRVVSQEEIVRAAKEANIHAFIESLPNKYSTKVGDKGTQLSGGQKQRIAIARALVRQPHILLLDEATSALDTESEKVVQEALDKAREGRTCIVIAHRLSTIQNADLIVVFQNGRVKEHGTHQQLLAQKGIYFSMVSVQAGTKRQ

With `Cc1c(Cl)c(C)[n+]([O-])c(Cl)c1-c1noc(-c2cc(OS(=O)(=O)O)c(O)c([N+](=O)[O-])c2)n1` [BIA 9-1103], the “transported by OATP1B1” value on OATP1B1 was “transported”. Further, on OATP1B3, the “transported by OATP1B3” value is given as “transported”. Moreover, the “efflux transported by P-gp (P-gp/MDR1 substrate)” value in data set [1] is given as “not a substrate”. In addition, at BCRP, the “efflux transported by BCRP” value was “efflux transported”.

`Cc1c(Cl)c(C)[n+]([O-])c(Cl)c1-c1noc(-c2cc(O)c(O)c([N+](=O)[O-])c2)n1` [OPC, 5-[3-(2,5-dichloro-4,6-dimethyl-1-oxy-pyridin-3-yl)-[1,2,4]oxadiazol-5-yl]-3-nitrobenzene-1,2-diol]: the Tmax in data set [2] (both sexes, human, oral, opicapone in plasma, healthy subjects, fasted, single dose OPC 50 mg, Median) was determined as 91.8 min. Further, the AUC(0-inf) in data set [2] (both sexes, human, oral, opicapone in plasma, healthy subjects, fasted, single dose OPC 50 mg, Geometric Mean (descriptive), read-out: AUC(0-inf), Geometric Mean) was found to be 2060 ng·h/mL; in data set [2] (both sexes, human, oral, opicapone in plasma, healthy subjects, fasted, single dose OPC 50 mg, Mean, read-out: AUC(0-inf), Mean) it was 2140 ng·h/mL; in data set [2] (both sexes, human, oral, opicapone in plasma, healthy subjects, fasted, single dose OPC 50 mg, Median, read-out: AUC(0-inf), Median), 2020 ng·h/mL; in data set [2] (both sexes, human, oral, opicapone, geometric mean from linear mixed effects model, OPC 50 mg, healthy subjects, read-out: AUC0-inf, GM), 2030 ng·h/mL. Moreover, the AUC(0-t) is 1960 ng·h/mL in data set [2] (both sexes, human, oral, opicapone in plasma, healthy subjects, fasted, single dose OPC 50 mg, Geometric Mean (descriptive), read-out: AUC(0-last), Geometric Mean); 2040 ng·h/mL in data set [2] (both sexes, human, oral, opicapone in plasma, healthy subjects, fasted, single dose OPC 50 mg, Mean, read-out: AUC(0-last), Mean); 1940 ng·h/mL in data set [2] (both sexes, human, oral, opicapone in plasma, healthy subjects, fasted, single dose OPC 50 mg, Median, read-out: AUC(0-last), Median); 1960 ng·h/mL in data set [2] (both sexes, human, oral, opicapone, geometric mean from linear mixed effects model, OPC 50 mg, healthy subjects, read-out: AUC0-t, GM). Besides, the Cmax in data set [2] (both sexes, human, oral, opicapone in plasma, healthy subjects, fasted, single dose OPC 50 mg, Geometric Mean (descriptive), read-out: Cmax, Geometric Mean) was found to be 766 ng/mL; in data set [2] (both sexes, human, oral, opicapone in plasma, healthy subjects, fasted, single dose OPC 50 mg, Mean, read-out: Cmax, Mean), 804 ng/mL; in data set [2] (both sexes, human, oral, opicapone in plasma, healthy subjects, fasted, single dose OPC 50 mg, Median, read-out: Cmax, Median), 782 ng/mL; in data set [2] (both sexes, human, oral, opicapone, geometric mean from linear mixed effects model, OPC 50 mg, healthy subjects, read-out: Cmax, GM), 766 ng/mL. Further, the half-life in data set [2] (both sexes, human, oral, opicapone in plasma, healthy subjects, fasted, single dose OPC 50 mg, Geometric Mean (descriptive), read-out: t½, Geometric Mean (converted)) was 53.2 min; in data set [2] (both sexes, human, oral, opicapone in plasma, healthy subjects, fasted, single dose OPC 50 mg, Mean, read-out: t½, Mean (converted)), 55.1 min; in data set [2] (both sexes, human, oral, opicapone in plasma, healthy subjects, fasted, single dose OPC 50 mg, Median, read-out: t½, Median (converted)) it was 55.9 min. Also, the “decrease in opicapone exposure” value in data set [2] (in those also being administered quinidine) is given as “approximately 30%”. The “Tlag, Median” value in data set [2] (opicapone in plasma, healthy subjects, fasted, single dose OPC 50 mg, Median) turned out to be 0.00 h. Also, the “transported by OATP1B1” value on OATP1B1 is listed as “not transported”. For the same compound, the “transported by OATP1B3” value at OATP1B3 is “transported”. In addition, the “efflux transported by P-gp (P-gp/MDR1 substrate)” value in data set [1] is “efflux transported”. Also, the “efflux transported by BCRP” value on BCRP is on record as “efflux transported”.
